Converted amounts (≈) assume the structure as drawn.
Key:
Type in all cases: cell-based, Staphylococcus aureus
Staph aureus 1095 MRSA = assay: MIC, microtiter broth dilution (CLSI M7-A7), Assay 1, Table 12 column A, no serum; settings: Assay 1, no serum; for MIC: Staphylococcus aureus, MRSA
Summary of the method: (§1)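 Testing followed the CLSI M7-A7 dilution standard in microtiter trays, with serum conditions using Mueller-Hinton Broth plus 50% pooled inactivated human serum. Values are the lowest concentrations with no macroscopically visible growth.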

Staph aureus 1146 [1] = assay: MIC, microtiter broth dilution (CLSI M7-A7), Assay 1, Table 12 column B, no serum; settings: for MIC: Staphylococcus aureus, 1146, Staph aureus 1146, Assay 1, no serum; for MIC, column B: Staph aureus 1146, Assay 1, no serum
Summary of the method: as §1

Staph aureus 1146 [2] = assay: MIC in Mueller-Hinton Broth with 50% pooled inactivated human serum, Assay 1, Table 12; settings: for MIC: Staphylococcus aureus, 1146, Staph aureus 1146, Assay 1, 50% human serum, read-out: MIC, column C; for MIC, column C: Staph aureus 1146, Assay 1, 50% human serum
Summary of the method: as §1

Staph aureus 2811 = assay: MIC, microtiter broth dilution (CLSI M7-A7), Assay 1, Table 12 column D, no serum; settings: for MIC: Staphylococcus aureus, 2811, Staph aureus 2811, Assay 1, no serum; for MIC, column D: Staph aureus 2811, Assay 1, no serum
Summary of the method: as §1

Staph aureus 2812 = assay: MIC, microtiter broth dilution (CLSI M7-A7), Assay 1, Table 12 column E, no serum; settings: for MIC: Staphylococcus aureus, 2812, Staph aureus 2812, Assay 1, no serum; for MIC, column E: Staph aureus 2812, Assay 1, no serum
Summary of the method: as §1

| MIC (Staph aureus 1146 [1]) | MIC (Staph aureus 1146 [2]) | MIC (Staph aureus 2811) | MIC (Staph aureus 2812) | MIC (Staph aureus 1095 MRSA) | SMILES | MIC, column A (Staph aureus 1095 MRSA) | MIC, column B (Staph aureus 1146 [1]) | MIC, column C (Staph aureus 1146 [2]) | MIC, column D (Staph aureus 2811) | MIC, column E (Staph aureus 2812) |
| --- | --- | --- | --- | --- | --- | --- | --- | --- | --- | --- |
| ≤ 0.0625 µg/mL | 2 µg/mL (≈ 4.2 µM) | 0.125 µg/mL (≈ 0.262 µM) | ≤ 0.0625 µg/mL | – | COc1ccc2nccc(C(F)CC[C@@H]3CCN(C4CC(c5ccccc5)C4)C[C@@H]3C(=O)O)c2c1 (stereo partly drawn) [Example 133, (3R,4R)-4-(3-fluoro-3-(6-methoxyquinolin-4-yl)propyl)-1-(3-phenylcyclobutyl)piperidine-3-carboxylic acid] | 0.25 µg/mL (≈ 0.525 µM) | – | – | – | – |
| 0.25 µg/mL (≈ 0.529 µM) | 8 µg/mL (≈ 16.9 µM) | 0.125 µg/mL (≈ 0.265 µM) | 0.25 µg/mL (≈ 0.529 µM) | 0.25 µg/mL (≈ 0.529 µM) | COc1ccc2nccc(C(=O)CC[C@@H]3CCN(C4CC(c5ccccc5)C4)C[C@@H]3C(=O)O)c2c1 (stereo partly drawn) [Example 135, (3R,4R)-4-[3-(6-Methoxy-quinolin-4-yl)-3-oxo-propyl]-1-(3-phenyl-cyclobutyl)-piperidine-3-carboxylic acid] | – | – | – | – | – |
| 1 µg/mL (≈ 2.11 µM) | 0.5 µg/mL (≈ 1.06 µM) | 0.5 µg/mL (≈ 1.06 µM) | 2 µg/mL (≈ 4.22 µM) | 2 µg/mL (≈ 4.22 µM) | COc1ccc2nccc(C(N)CC[C@@H]3CCN(C4CC(c5ccccc5)C4)C[C@@H]3C(=O)O)c2c1 (stereo partly drawn) [Example 138, (3R,4R)-4-[3-Amino-3-(6-methoxy-quinolin-4-yl)-propyl]-1-(3-phenyl-cyclobutyl)-piperidine-3-carboxylic acid] | – | – | – | – | – |
| 1 µg/mL (≈ 1.96 µM) | 32 µg/mL (≈ 62.9 µM) | 0.5 µg/mL (≈ 0.982 µM) | 1 µg/mL (≈ 1.96 µM) | 2 µg/mL (≈ 3.93 µM) | COc1ccc2ncc(Cl)c(C(O)CCC3(C(=O)O)CCN(C4CC(c5ccccc5)C4)CC3)c2c1 (stereo not shown) [Example 141, 4-(3-(3-chloro-6-methoxyquinolin-4-yl)-3-hydroxypropyl)-1-(3-phenylcyclobutyl)piperidine-4-carboxylic acid] | – | – | – | – | – |
| 1 µg/mL (≈ 2.05 µM) | 4 µg/mL (≈ 8.2 µM) | 0.5 µg/mL (≈ 1.03 µM) | 1 µg/mL (≈ 2.05 µM) | 0.25 µg/mL (≈ 0.513 µM) | CNC(=O)[C@H]1CN(C2CC(c3ccccc3)C2)CC[C@H]1CCC(O)c1ccnc2ccc(OC)cc12 (stereo partly drawn) [Example 145, (3R,4R)-4-[3-Hydroxy-3-(6-methoxy-quinolin-4-yl)-propyl]-1-(3-phenyl-cyclobutyl)-piperidine-3-carboxylic acid methylamide] | – | – | – | – | – |
| 16 µg/mL (≈ 32.4 µM) | > 64 µg/mL | 32 µg/mL (≈ 64.7 µM) | 32 µg/mL (≈ 64.7 µM) | 32 µg/mL (≈ 64.7 µM) | COc1ccc2ncc(F)c(C(O)COC3(C(=O)O)CCN(C4CC(c5ccccc5)C4)CC3)c2c1 (stereo not shown) [Example 146, 4-(2-(3-fluoro-6-methoxyquinolin-4-yl)-2-hydroxyethoxy)-1-(3-phenylcyclobutyl)piperidine-4-carboxylic acid] | – | – | – | – | – |
| 1 µg/mL (≈ 1.92 µM) | 2 µg/mL (≈ 3.83 µM) | 0.5 µg/mL (≈ 0.958 µM) | 0.5 µg/mL (≈ 0.958 µM) | 4 µg/mL (≈ 7.66 µM) | COc1ccc2ncc(Cl)c(CCNC3(C(=O)O)CCCN(C4CC(c5cccc(C)c5)C4)CC3)c2c1 (stereo not shown) [Example 153, 4-{[2-(3-chloro-6-methoxyquinolin-4-yl)ethyl]amino}-1-[3-(3-methylphenyl)cyclobutyl]azepane-4-carboxylic acid] | – | – | – | – | – |
| 0.125 µg/mL (≈ 0.238 µM) | 4 µg/mL (≈ 7.6 µM) | 0.25 µg/mL (≈ 0.475 µM) | 0.125 µg/mL (≈ 0.238 µM) | 1 µg/mL (≈ 1.9 µM) | COc1ccc2ncc(Cl)c(CCNC3(C(=O)O)CCCN(C4CC(c5cccc(F)c5)C4)CC3)c2c1 (stereo not shown) [Example 155, 4-{[2-(3-chloro-6-methoxyquinolin-4-yl)ethyl]amino}-1-[3-(3-fluorophenyl)cyclobutyl] azepane-4-carboxylic acid] | – | – | – | – | – |

More lines, now with the values behind:

| SMILES | MIC (Staph aureus 1146 [1]) | MIC (Staph aureus 1146 [2]) | MIC (Staph aureus 2811) | MIC (Staph aureus 2812) | MIC (Staph aureus 1095 MRSA) | MIC, column A (Staph aureus 1095 MRSA) | MIC, column B (Staph aureus 1146 [1]) | MIC, column C (Staph aureus 1146 [2]) | MIC, column D (Staph aureus 2811) | MIC, column E (Staph aureus 2812) |
| --- | --- | --- | --- | --- | --- | --- | --- | --- | --- | --- |
| COc1ccc2nccc(C(F)CC[C@@H]3CCN(C4CC(c5ccccc5)C4)C[C@@H]3C(=O)O)c2c1 (stereo partly drawn) [Example 134, (3R,4R)-4-(3-fluoro-3-(6-methoxyquinolin-4-yl)propyl)-1-(3-phenylcyclobutyl)piperidine-3-carboxylic acid] | – | – | – | – | – | <=.0625 μg/ml | <=.0625 μg/ml | 4 µg/mL (≈ 8.39 µM) | <=.0625 μg/ml | <=.0625 μg/ml |
| CNC(CC[C@@H]1CCN(C2CC(c3ccccc3)C2)C[C@@H]1C(=O)O)c1ccnc2ccc(OC)cc12 (stereo partly drawn) [Example 136, (3R,4R)-4-[3-(6-Methoxy-quinolin-4-yl)-3-methylamino-propyl]-1-(3-phenyl-cyclobutyl)-piperidine-3-carboxylic acid] | 4 µg/mL (≈ 8.2 µM) | 4 µg/mL (≈ 8.2 µM) | 4 µg/mL (≈ 8.2 µM) | 8 µg/mL (≈ 16.4 µM) | 8 µg/mL (≈ 16.4 µM) | – | – | – | – | – |
| COc1ccc2nccc(C(CC[C@@H]3CCN(C4CC(c5ccccc5)C4)C[C@@H]3C(=O)O)N3CCC3)c2c1 (stereo partly drawn) [Example 137, (3R,4R)-4-[3-Azetidin-1-yl-3-(6-methoxy-quinolin-4-yl)-propyl]-1-(3-phenylcyclobutyl)piperidine-3-carboxylic acid] | 64 µg/mL (≈ 125 µM) | > 64 µg/mL | 64 µg/mL (≈ 125 µM) | 64 µg/mL (≈ 125 µM) | > 64 µg/mL | – | – | – | – | – |
| COc1ccc2nccc(C(CC[C@@H]3CCN(C4CC(c5ccccc5)C4)C[C@@H]3C(=O)O)N3CCOCC3)c2c1 (stereo partly shown) [Example 139] | – | – | – | – | – | 2 µg/mL (≈ 3.68 µM) | 2 µg/mL (≈ 3.68 µM) | 16 µg/mL (≈ 29.4 µM) | 4 µg/mL (≈ 7.36 µM) | 2 µg/mL (≈ 3.68 µM) |
| COc1ccc2nccc(C(CC[C@@H]3CCN(C4CC(c5ccccc5)C4)C[C@@H]3C(=O)O)N(C)C)c2c1 (stereo partly drawn) [Example 140, (3R,4R)-4-[3-(dimethylamino)-3-(6-methoxyquinolin-4-yl)propyl]-1-(3-phenylcyclobutyl)piperidine-3-carboxylic acid] | 16 µg/mL (≈ 31.9 µM) | 64 µg/mL (≈ 128 µM) | 16 µg/mL (≈ 31.9 µM) | 16 µg/mL (≈ 31.9 µM) | 16 µg/mL (≈ 31.9 µM) | – | – | – | – | – |
| O=C(O)[C@H]1CN(C2CC(c3ccccc3)C2)CC[C@H]1CCC(O)c1ccnc2ccc(O)cc12 (stereo partly drawn) [Example 142, (3R,4R)-4-[3-hydroxy-3-(6-hydroxyquinolin-4-yl)propyl]-1-(3-phenylcyclobutyl)piperidine-3-carboxylic acid] | 16 µg/mL (≈ 34.7 µM) | > 64 µg/mL | 8 µg/mL (≈ 17.4 µM) | 16 µg/mL (≈ 34.7 µM) | 32 µg/mL (≈ 69.5 µM) | – | – | – | – | – |
| O=C(O)[C@H]1CN(C2CC(c3ccccc3)C2)CC[C@H]1CCC(O)c1ccnc2ccc(OC(F)F)cc12 (stereo partly shown) [Example 143] | – | – | – | – | – | 1 µg/mL (≈ 1.96 µM) | 0.5 µg/mL (≈ 0.979 µM) | 2 µg/mL (≈ 3.92 µM) | 0.5 µg/mL (≈ 0.979 µM) | 1 µg/mL (≈ 1.96 µM) |
| COc1ccc2nccc(C(O)CC[C@@H]3CCN(C4CC(c5ccccc5)C4)C[C@@H]3C(N)=O)c2c1 (stereo partly shown) [Example 144] | – | – | – | – | – | <=.0625 μg/ml | <=.0625 μg/ml | 0.25 µg/mL (≈ 0.528 µM) | <=.0625 μg/ml | <=.0625 μg/ml |
| COc1ccc2ncc(Cl)c(CCNC3(C(=O)O)CCCN(C4CC(c5c(F)cccc5F)C4)CC3)c2c1 (stereo not shown) [Example 154, 4-{[2-(3-chloro-6-methoxyquinolin-4-yl)ethyl]amino}-1-[3-(2,6-difluorophenyl)cyclobutyl]azepane-4-carboxylic acid] | 0.0625 µg/mL (≈ 0.115 µM) | 4 µg/mL (≈ 7.35 µM) | 0.0625 µg/mL (≈ 0.115 µM) | 0.0625 µg/mL (≈ 0.115 µM) | 0.25 µg/mL (≈ 0.46 µM) | – | – | – | – | – |
| COc1ccc2ncc(Cl)c(CCNC3(C(=O)O)CCCN(CC4CC4c4cc(F)ccc4F)CC3)c2c1 (stereo not shown) [Example 156, 4-{[2-(3-chloro-6-methoxyquinolin-4-yl)ethyl]amino}-1-{[2-(2,5-difluorophenyl)cyclopropyl]methyl}azepane-4-carboxylic acid] | 0.25 µg/mL (≈ 0.46 µM) | > 33 µg/mL | 0.5 µg/mL (≈ 0.919 µM) | 0.25 µg/mL (≈ 0.46 µM) | 1 µg/mL (≈ 1.84 µM) | – | – | – | – | – |
| COc1ccc2ncc(Cl)c(CCNC3(C(=O)O)CCCN(C4CC(c5cccc(C(F)(F)F)c5)C4)CC3)c2c1 (stereo not shown) [Example 157, 4-{[2-(3-chloro-6-methoxyquinolin-4-yl)ethyl]amino}-1-{3-[3-(trifluoromethyl)phenyl]cyclobutyl}azepane-4-carboxylic acid] | 1 µg/mL (≈ 1.74 µM) | > 33 µg/mL | 1 µg/mL (≈ 1.74 µM) | 0.5 µg/mL (≈ 0.868 µM) | 4 µg/mL (≈ 6.94 µM) | – | – | – | – | – |
| CCc1noc(C2CC(N3CC[C@@H](CCC(O)c4ccnc5ccc(OC)cc45)[C@@H](C(=O)O)C3)C2)n1 (stereo partly drawn) [Example 162, (3R,4R)-1-[3-(3-ethyl-1,2,4-oxadiazol-5-yl)cyclobutyl]-4-[3-hydroxy-3-(6-methoxyquinolin-4-yl)propyl]piperidine-3-carboxylic acid] | 64 µg/mL (≈ 129 µM) | > 64 µg/mL | 32 µg/mL (≈ 64.7 µM) | 64 µg/mL (≈ 129 µM) | 64 µg/mL (≈ 129 µM) | – | – | – | – | – |

— patent US20080280879A1, “SUBSTITUTED HETEROCYCLIC DERIVATIVES AND THEIR PHARMACEUTICAL USE AND COMPOSITIONS” (priority 2007, published 2008)
